Values quoted from earlier work, collected in patent US20060093222A1, “Data processing, analysis, and visualization system for use with disparate data types” (priority 1999, published 2006).

Columns and labels:
[1] = test system: Bacillus subtilis and Bacillus cereus; settings: liquid and semi-solid substrates, aerobic and anaerobic

Row | Molecule | additional patients normal or nearly normal 3 months after their stroke (stroke patients; for every 100 stroke patients treated with t-PA) | rate of fatal ICH (stroke patients; t-PA therapy, stroke patients) [%] | rate of symptomatic intracerebral hemorrhage (ICH) (stroke patients; t-PA therapy, stroke patients) [%] | anti-sporulation effect [1]
1 | Tissue plasminogen activator [t-PA] | 11-13 | 3 | 6 | 
2 | O=S(O)S(=O)(=O)O [metabisulphite] |  |  |  | effective anti-sporulation agent
